The experiment addresses T1, OGA (Homo sapiens, UniProt O60502).
T1 construct: HEK293 cells inducible for P301L mutant human Tau (isoform 2N4R) were established at Janssen; endogenous in cells; host or cells: HEK293 cells inducible for P301L mutant human Tau (2N4R)
T1 sequence (O60502 1-916): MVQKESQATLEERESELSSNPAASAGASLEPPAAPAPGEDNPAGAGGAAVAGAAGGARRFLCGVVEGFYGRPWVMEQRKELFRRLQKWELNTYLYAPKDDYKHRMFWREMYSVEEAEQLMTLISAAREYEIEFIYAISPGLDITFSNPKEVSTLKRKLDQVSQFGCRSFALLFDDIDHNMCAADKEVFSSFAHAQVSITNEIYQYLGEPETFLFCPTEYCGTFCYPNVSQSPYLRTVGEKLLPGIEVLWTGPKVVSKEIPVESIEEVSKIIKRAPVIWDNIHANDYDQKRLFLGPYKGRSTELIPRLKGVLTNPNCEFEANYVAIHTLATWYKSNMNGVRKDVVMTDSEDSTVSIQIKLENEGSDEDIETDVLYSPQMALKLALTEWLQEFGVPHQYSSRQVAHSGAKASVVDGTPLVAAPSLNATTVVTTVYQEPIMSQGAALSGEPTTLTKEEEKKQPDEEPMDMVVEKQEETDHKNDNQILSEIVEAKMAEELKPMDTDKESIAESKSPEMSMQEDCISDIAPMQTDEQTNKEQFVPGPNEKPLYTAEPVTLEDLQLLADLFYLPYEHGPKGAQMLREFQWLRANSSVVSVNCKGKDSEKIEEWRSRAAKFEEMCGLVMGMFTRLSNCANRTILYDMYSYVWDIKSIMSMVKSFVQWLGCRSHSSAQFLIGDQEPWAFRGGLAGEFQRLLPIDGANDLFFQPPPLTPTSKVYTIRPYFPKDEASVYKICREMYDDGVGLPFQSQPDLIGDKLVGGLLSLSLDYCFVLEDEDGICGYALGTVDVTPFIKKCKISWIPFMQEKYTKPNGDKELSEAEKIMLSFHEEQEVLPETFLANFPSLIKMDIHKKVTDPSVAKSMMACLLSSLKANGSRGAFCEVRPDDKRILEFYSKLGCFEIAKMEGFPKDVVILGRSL
The experiment can be described thus: OGA cellular assay (ICC detection of O-GlcNAcylated proteins in HEK293 cells inducible for P301L mutant human Tau). It counts as cell-based. Summed up:
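HEK293 cells inducible for P301L Tau (2N4R), seeded in low-glucose medium, treated with compound for 6 h at 0.2% DMSO. O-GlcNAc immunostained with CTD110.6 after PFA fixation; 488 nm intensity imaged, Hoechst nuclei counted for toxicity. IC50 by non-linear regression, 200 uM Thiamet G as maximum.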

SMILES strings stand for the structures.

What is called Emax is the maximal effect, on the per cent scale that the assay sets. `Cc1cc(C2CCCN(C(C)c3ccc4sc(C)nc4n3)C2)cc(C)n1` (racemic) [Compound 39]: under “HEK293, HEK293 cells inducible for P301L mutant human Tau, maximum = Thiamet G 200 uM”, the Emax is 79%. Further, the EC50 (HEK293 cells inducible for P301L mutant human Tau, 6 hours incubation, read-out: Cellular hOGA, pEC50 (converted)) was 63.1 nM.

(Values after patent publication US20210115040A1, “OGA INHIBITOR COMPOUNDS” (Janssen Pharmaceutica NV, priority 2018, published 2021).)
